Measurements as given in US20120282169A1, “DETECTION AND TREATMENT OF TRAUMATIC BRAIN INJURY” (Adlyfe, Inc., priority 2009, published 2012).
[ ]: non-standard residue; d: D form. The star is where a group is joined. Butanoyl(4-pyren-1-yl) = O=C(CCCc1ccc2ccc3cccc4ccc1c2c34)*; Biotin = O=C1N[C@H]2[C@H](CS[C@H]2CCCCC(=O)*)N1

Key:
[1] = target: synthetic Aβ42 oligomer (Homo sapiens, UniProt P05067); experiment: Self-fluorescence assay of pyrene-labeled probe with synthetic Aβ42 oligomer; format: binding; details: 70 nM probe
Description: 70 nM of the peptide probe of SEQ ID NO:2 is incubated with 4000, 2000, 1000, 450, 250 and 0 pM synthetic Aβ42 oligomer (in triplicate) in a solution consisting of 10 mM Hepes (pH 7.0), 0.0074% Tween20 and 30% (v/v) normal human CSF (Bioreclamations, Inc.) for 0, 3, and 18 hours at room temperature in a final volume of 200 μL in a microtiter plate. The plate is then analyzed using a Tecan safire^2 fluorescence plate reader. For each sample, the net self-fluorescence response (fluorescence emission from 370-385 nm) is determined by subtraction of the self-fluorescence response of the control (0 pM) from the fluorescence response of the experimental sample.
The specificity of the probe is confirmed as follows. 70 nM of the peptide probe of SEQ ID NO:22 is incubated with several potential substrates in a solution consisting of 10 mM Hepes (pH 7.0), 0.0074% Tween20 and 10% (v/v) normal human CSF. […] There also is a significant response to Aβ42 fiber down to at least 100 nN. […]
70 nM of each of the two peptoid probes 1 or 2 is incubated with 15, 5, 1.5 or 0 nM synthetic Aβ42 oligomer (in triplicate). […] The plate is then analyzed using a Tecan safire^2 fluorescence plate reader. For each sample, the self-fluorescence response (fluorescence emission from 370-385 nm) of the peptoid is plotted as a function of amyloid beta aggregate concentration.

[2] = target: T1, human serum albumin (Homo sapiens, UniProt P02768); experiment: Self-fluorescence specificity assay of probe in 10% human CSF; format: binding; details: 70 nM probe; 10% (v/v) normal human CSF; except at the highest dose, 0.16 mg/mL; FIG. 2
Description: (§1) The specificity of the probe is confirmed as follows. 70 nM of the peptide probe of SEQ ID NO:22 is incubated with several potential substrates in a solution consisting of 10 mM Hepes (pH 7.0), 0.0074% Tween20 and 10% (v/v) normal human CSF. […] There also is a significant response to Aβ42 fiber down to at least […]. […] Since fibers are easily removed from the reaction by a centrifugation step, specificity for amyloid beta oligomers is easily obtained.

[3] = system: carbonic anhydrase; experiment: as above; format: binding; details: 70 nM probe; 10% (v/v) normal human CSF; FIG. 2
Description: as §1

[4] = target: T2, Aβ40 monomer (Homo sapiens, UniProt P05067); experiment: as above; format: binding; details: 70 nM probe; 10% (v/v) normal human CSF; FIG. 2
Description: as §1

[5] = target: Aβ40 fiber (Homo sapiens, UniProt P05067); experiment: as above; format: binding; details: 70 nM probe; 10% (v/v) normal human CSF; FIG. 2
Description: as §1

[6] = target: T3, Aβ42 monomer (Homo sapiens, UniProt P05067); experiment: as above; format: binding; details: 70 nM probe; 10% (v/v) normal human CSF; FIG. 2
Description: as §1

[7] = target: Aβ42 fiber (Homo sapiens, UniProt P05067); experiment: as above; format: binding; parameters: unit not given here; details: 70 nM probe; 10% (v/v) normal human CSF; FIG. 2
Description: as §1

[8] = system: Aβ40 Dimer; details: Mouse
Description: (§2) A plate-based ELISA-like assay was developed in which the above-described peptide probes may be used to capture and detect target amyloid beta protein (such as oligomers). […] Streptavidin-coated 96-well plates are prepared, followed by introduction of biotinylated peptide. Sample is then added to the wells and allowed to incubate, such as for two hours at room temperature. Any target amyloid beta protein in the sample will be capture by the immobilized peptide probe. The plate is then washed, such as using a low salt buffer to eliminate potential interfering factors (e.g. endogenous proteins, lipids, and other debris). The remaining amyloid beta aggregate-peptide probe complex is bound to a reporter antibody that is specific for the N-terminus of the amyloid beta sequence (6E10-HRP), and detected by addition of 3,3′,5,5′-tetramethylbenzidine (TMB).
(§3) Soluble brain extracts are prepared according to a known method. For example 5 mL tris-buffered saline (PH 7.4) is added per gram of frozen brain tissue, and then homogenized with a dounce homogenizer (25 strokes). The material is then centrifuged at 21,900× g for 30 minutes at 4 C. The resulting TBS supernatant (soluble extract) is used at 10-30% (v/v) final concentration in the following assays.

[9] = target: synthetic Aβ42 oligomer (Aβ42 Oligo Type A) (Homo sapiens, UniProt P05067); experiment: Plate-based ELISA-like assay with immobilized biotinylated peptide probe (6E10-HRP/TMB detection); format: binding
Description: FIG. 4A and FIG. 4B illustrate the results in buffer and 10% soluble mouse brain extract using SEQ ID NO:41 as a peptide probe. […] The white bars indicate control reactions in which peptide are not added. Black bars show the complete reaction in which 9000, 1500, 250, 42, 7, 1.2, 0.2, or 0 pM Aβ42 oligomer is added (in triplicate) to wells containing bound peptide probe of SEQ ID NO:41.
The white bars indicate control reactions in which peptide are not added. Black bars show the complete reaction in which 10% human TBS brain extract containing 750, 250, 85, 28, 9.5, 3.1, or 0 pM Aβ42 oligomer is added (in triplicate) to wells containing bound peptide probe of SEQ ID NO:41.
FIG. 5A and FIG. 5B illustrate the results in 10% (A) and 30% (B) human brain TBS extract using SEQ ID NO:41 as a peptide probe. […] The white bars indicate control reactions in which peptide is not added. Black bars show the complete reaction in which 10% human TBS brain extract containing 750, 250, 85 or 0 pM Aβ42 oligomer is added (in triplicate) to wells containing bound peptide probe of SEQ ID NO:41.
The white bars indicate control reactions in which peptide are not added. Black bars show the complete reaction in which 30% human TBS brain extract containing 750, 250, 85, 28, 9.5, 3.1, or 0 pM Aβ42 oligomer is added (in triplicate) to wells containing bound peptide probe of SEQ ID NO:41.

[10] = target: Aβ42 Oligo (Type B) (Homo sapiens, UniProt P05067); experiment: Plate-based ELISA-like assay with immobilized biotinylated peptide probe; format: binding
Description: as §2, §3

[11] = target: T1, human serum albumin; experiment: as above; format: binding
Description: as §2, §3

[12] = target: T2, Aβ40 monomer; experiment: as above; format: binding; details: for Limit of detection, Aβ40 Monomer: up to 15 nM
Description: as §2, §3

[13] = target: T3, Aβ42 monomer; experiment: as above; format: binding; details: for Limit of detection, Aβ42 Monomer: up to 15 nM
Description: as §2, §3

[14] = target: human serum albumin (human, UniProt P02768 25-609); experiment: plate assay, biotinylated probe on streptavidin plate, 6E10-HRP/TMB detection; Human column (brain extract)

Molecule: PBA-KLVFFAEDVGSNKGAIIGLMK(PBA)rr-NH2 ({Butanoyl(4-pyren-1-yl)}-KLVFFAEDVGSNKGAIIGLMK(Butanoyl(4-pyren-1-yl))[dR][dR]-NH2; SMILES CC[C@H](C)[C@H](NC(=O)[C@H](C)NC(=O)CNC(=O)[C@H](CCCCN)NC(=O)[C@H](CC(N)=O)NC(=O)[C@H](CO)NC(=O)CNC(=O)[C@@H](NC(=O)[C@H](CC(=O)O)NC(=O)[C@H](CCC(=O)O)NC(=O)[C@H](C)NC(=O)[C@H](Cc1ccccc1)NC(=O)[C@H](Cc1ccccc1)NC(=O)[C@@H](NC(=O)[C@H](CC(C)C)NC(=O)[C@H](CCCCN)NC(=O)CCCc1ccc2ccc3cccc4ccc1c2c34)C(C)C)C(C)C)C(=O)N[C@H](C(=O)NCC(=O)N[C@@H](CC(C)C)C(=O)N[C@@H](CCSC)C(=O)N[C@@H](CCCCNC(=O)CCCc1ccc2ccc3cccc4ccc1c2c34)C(=O)N[C@H](CCCNC(=N)N)C(=O)N[C@H](CCCNC(=N)N)C(N)=O)[C@@H](C)CC) [SEQ ID NO:22, WT, with 2 C-terminal dArg residues, and alternate label site]
- peptide probe fluorescence response to Aβ42 oligomer ([1]; 10% (v/v) normal human CSF, FIG. 2): strong and dose-dependent response
- peptide fluorescence response to human serum albumin [2]: little or no peptide fluorescence response
- peptide fluorescence response to carbonic anhydrase [3]: little or no peptide fluorescence response
- peptide fluorescence response to Aβ40 monomer [4]: little or no peptide fluorescence response
- peptide fluorescence response to Aβ40 fiber [5]: little or no peptide fluorescence response
- peptide fluorescence response to Aβ42 monomer [6]: little or no peptide fluorescence response
- lowest Aβ42 fiber concentration giving significant response [7]: ≤ 100

Molecule: PBA-KLVFFAEDVGSNKHAIIELMK(PBA)-NH2 ({Butanoyl(4-pyren-1-yl)}-KLVFFAEDVGSNKHAIIELMK(Butanoyl(4-pyren-1-yl))-NH2; SMILES CC[C@H](C)[C@H](NC(=O)[C@H](C)NC(=O)[C@H](Cc1c[nH]cn1)NC(=O)[C@H](CCCCN)NC(=O)[C@H](CC(N)=O)NC(=O)[C@H](CO)NC(=O)CNC(=O)[C@@H](NC(=O)[C@H](CC(=O)O)NC(=O)[C@H](CCC(=O)O)NC(=O)[C@H](C)NC(=O)[C@H](Cc1ccccc1)NC(=O)[C@H](Cc1ccccc1)NC(=O)[C@@H](NC(=O)[C@H](CC(C)C)NC(=O)[C@H](CCCCN)NC(=O)CCCc1ccc2ccc3cccc4ccc1c2c34)C(C)C)C(C)C)C(=O)N[C@H](C(=O)N[C@@H](CCC(=O)O)C(=O)N[C@@H](CC(C)C)C(=O)N[C@@H](CCSC)C(=O)N[C@@H](CCCCNC(=O)CCCc1ccc2ccc3cccc4ccc1c2c34)C(N)=O)[C@@H](C)CC) [SEQ ID NO:2, Salt bridge at G29H and G33E]
- Aβ42 oligomer concentration statistically distinguishable from the control reaction (net self-fluorescence response, t-test) ([1]; 10 mM Hepes pH 7.0, 0.0074% Tween20, 30% (v/v) normal human CSF, emission 370-385 nm, FIG. 1): 450 pM

Molecule: PBA-KLVFFAEDVGSNKHAIIELMK(PBA)GLVPR GSGK(biotin)-NH2 [SEQ ID NO:41]
- Limit of detection, Aβ40 Dimer [8]: 850 pM
- lowest amount of amyloid beta aggregate detected in plate assay (t-test) ([9]; 10% human TBS brain extract, FIG. 4B): 28 pM
- amyloid beta aggregate detectable down to ([9]; 30% human TBS brain extract, FIG. 5B): ≤ 85 pM
- Limit of detection, Aβ42 Oligo (Type A) ([9]; Human): ~28 pM
- Limit of detection, Aβ42 Oligo (Type A) ([9]; Mouse): ~28 to 85 pM
- lowest amount of amyloid beta aggregate detected in plate assay (t-test) ([9]; buffer system, FIG. 4A): 7 pM
- Limit of detection, Aβ42 Oligo (Type B) ([10]; Human): 8.5 pM
- Limit of detection, Aβ42 Oligo (Type B) ([10]; Mouse): ~8.5 pM
- Limit of detection, has ([11]; Human, up to 0.15 mg/mL): Not detected
- Limit of detection, has ([11]; Mouse): Not detected
- TMB response to human serum albumin ([11]; plate assay): little to no TMB response
- Limit of detection, Aβ40 Monomer ([12]; Human): Not detected
- Limit of detection, Aβ40 Monomer ([12]; Mouse): Not detected
- TMB response to Aβ40 monomer ([12]; plate assay): little to no TMB response
- Limit of detection, Aβ42 Monomer ([13]; Human): Not detected
- Limit of detection, Aβ42 Monomer ([13]; Mouse): Not detected
- TMB response to Aβ42 monomer ([13]; plate assay): little to no TMB response

B1: peptide probe of SEQ ID NO:41 (peptide)
peptide: {Butanoyl(4-pyren-1-yl)}-KLVFFAEDVGSNKHAIIELMK(Butanoyl(4-pyren-1-yl))GLVPRGSGK(Biotin)-NH2
SMILES: CC[C@H](C)[C@H](NC(=O)[C@H](C)NC(=O)[C@H](Cc1c[nH]cn1)NC(=O)[C@H](CCCCN)NC(=O)[C@H](CC(N)=O)NC(=O)[C@H](CO)NC(=O)CNC(=O)[C@@H](NC(=O)[C@H](CC(=O)O)NC(=O)[C@H](CCC(=O)O)NC(=O)[C@H](C)NC(=O)[C@H](Cc1ccccc1)NC(=O)[C@H](Cc1ccccc1)NC(=O)[C@@H](NC(=O)[C@H](CC(C)C)NC(=O)[C@H](CCCCN)NC(=O)CCCc1ccc2ccc3cccc4ccc1c2c34)C(C)C)C(C)C)C(=O)N[C@H](C(=O)N[C@@H](CCC(=O)O)C(=O)N[C@@H](CC(C)C)C(=O)N[C@@H](CCSC)C(=O)N[C@@H](CCCCNC(=O)CCCc1ccc2ccc3cccc4ccc1c2c34)C(=O)NCC(=O)N[C@@H](CC(C)C)C(=O)N[C@H](C(=O)N1CCC[C@H]1C(=O)N[C@@H](CCCNC(=N)N)C(=O)NCC(=O)N[C@@H](CO)C(=O)NCC(=O)N[C@@H](CCCCNC(=O)CCCC[C@@H]1SC[C@@H]2NC(=O)N[C@@H]21)C(N)=O)C(C)C)[C@@H](C)CC
notes: P22 with a thrombin site linker and biotin at the C-terminus, immobilised on streptavidin-coated plates; also called AD317; biotinylated peptide probe
- binding result [14]: no binding (tested: up to 0.15 mg/mL)
